Reference: US6455550B1, “N-alkanoylphenylalanine derivatives” (Hoffmann-La Roche Inc., priority 1997, dated 2002)

What was measured:
[1] = molecular target: T1, cell-surface VLA-4 (α4β1 integrin) on Ramos cells binding to immobilized VCAM-1 (Homo sapiens, UniProt P05556+P13612); test: Ramos (VLA-4)/VCAM-1 Cell-Based Screening Assay (cell adhesion); conditions: Calcein-AM labeled Ramos cells, VCAM-1 coated plates, 45 min at room temperature; read-out: IC50 in Ramos Cell Based Assay
T1 construct: Ramos cells bearing cell-surface VLA-4; endogenous in cells; host or cells: Ramos cells (VLA-4); VCAM-1 purified from CHO cell culture media
T1 sequence (P13612 34-1032): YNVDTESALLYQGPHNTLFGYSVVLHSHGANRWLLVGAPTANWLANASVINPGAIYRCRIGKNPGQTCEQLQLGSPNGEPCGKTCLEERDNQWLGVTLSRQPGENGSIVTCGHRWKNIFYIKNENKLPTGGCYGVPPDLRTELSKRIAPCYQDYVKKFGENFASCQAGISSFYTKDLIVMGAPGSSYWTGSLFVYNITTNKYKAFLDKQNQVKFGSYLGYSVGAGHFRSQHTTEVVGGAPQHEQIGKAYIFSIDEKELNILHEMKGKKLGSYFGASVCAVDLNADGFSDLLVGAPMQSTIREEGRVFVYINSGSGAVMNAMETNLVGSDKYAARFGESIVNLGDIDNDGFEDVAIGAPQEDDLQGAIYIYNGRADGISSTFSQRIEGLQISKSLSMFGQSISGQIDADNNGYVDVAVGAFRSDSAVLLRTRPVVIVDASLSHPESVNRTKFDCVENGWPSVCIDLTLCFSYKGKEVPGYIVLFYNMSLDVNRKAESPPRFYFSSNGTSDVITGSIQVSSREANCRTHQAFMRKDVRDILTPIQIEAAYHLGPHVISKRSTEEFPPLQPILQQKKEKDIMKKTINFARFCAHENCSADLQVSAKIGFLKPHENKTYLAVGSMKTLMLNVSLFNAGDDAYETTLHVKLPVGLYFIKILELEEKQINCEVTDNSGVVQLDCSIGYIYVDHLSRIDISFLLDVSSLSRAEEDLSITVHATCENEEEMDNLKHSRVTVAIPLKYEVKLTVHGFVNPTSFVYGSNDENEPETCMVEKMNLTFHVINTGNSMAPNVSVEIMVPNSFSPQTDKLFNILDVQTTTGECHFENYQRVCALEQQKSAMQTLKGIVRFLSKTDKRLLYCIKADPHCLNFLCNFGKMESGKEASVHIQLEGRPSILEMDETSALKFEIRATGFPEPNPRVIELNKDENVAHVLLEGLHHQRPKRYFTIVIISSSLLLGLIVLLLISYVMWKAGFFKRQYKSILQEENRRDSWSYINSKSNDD
T1 sequence (P05556 21-798): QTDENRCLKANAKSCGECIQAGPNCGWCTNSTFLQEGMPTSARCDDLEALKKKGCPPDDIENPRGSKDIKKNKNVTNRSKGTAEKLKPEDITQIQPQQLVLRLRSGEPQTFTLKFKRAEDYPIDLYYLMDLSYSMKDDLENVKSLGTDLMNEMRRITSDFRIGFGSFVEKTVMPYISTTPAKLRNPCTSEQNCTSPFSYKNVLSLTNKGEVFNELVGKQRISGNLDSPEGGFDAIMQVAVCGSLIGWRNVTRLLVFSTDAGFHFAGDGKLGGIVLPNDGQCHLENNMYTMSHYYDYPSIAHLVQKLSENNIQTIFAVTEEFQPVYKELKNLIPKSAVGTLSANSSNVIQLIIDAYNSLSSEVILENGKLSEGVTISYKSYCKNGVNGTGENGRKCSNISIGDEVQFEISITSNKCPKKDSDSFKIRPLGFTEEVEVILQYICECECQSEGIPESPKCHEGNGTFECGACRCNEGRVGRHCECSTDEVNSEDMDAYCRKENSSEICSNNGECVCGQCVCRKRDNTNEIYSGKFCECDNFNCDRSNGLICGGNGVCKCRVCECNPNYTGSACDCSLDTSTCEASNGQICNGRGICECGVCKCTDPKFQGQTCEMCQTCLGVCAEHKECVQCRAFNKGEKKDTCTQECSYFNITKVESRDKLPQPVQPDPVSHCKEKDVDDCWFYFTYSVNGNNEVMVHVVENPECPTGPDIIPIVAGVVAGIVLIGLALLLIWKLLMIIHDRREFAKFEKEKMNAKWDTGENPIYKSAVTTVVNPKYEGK

[2] = molecular target: T2, VLA-4 (α4β1 integrin) binding to immobilized VCAM-1 (Homo sapiens, UniProt P05556+P13612); test: VLA-4/VCAM-1 Screening Assay (solid-phase, dual antibody ELISA); conditions: Ramos cell-derived VLA-4, recombinant human VCAM-1 coated plates, 2 hr at 37° C.; read-out: IC50
T2 construct: followed by 10 μl of Ramos cell-derived VLA-4; endogenous in cells; host or cells: Ramos cells (VLA-4 preparation derived from the cells)
T2 sequence (P13612 34-1032): as the sequence (P13612 34-1032) above
T2 sequence (P05556 21-798): as the sequence (P05556 21-798) above
How it was run: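 Recombinant human VCAM-1 is coated onto plates and Ramos cell-derived VLA-4 is added with compound (final DMSO 5%) in Tris buffer pH 7.4 with 1 mM MnCl2 and 1 mg/mL BSA, 2 hr at 37° C. Bound VLA-4 is detected by anti-β1 antibody, HRP anti-mouse IgG and K-Blue colorimetry. Results are % inhibition of total binding.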

SMILES: COCCC1(C(=O)N[C@@H](Cc2ccc(NC(=O)c3cc(C#N)ccc3Cl)cc2)C(=O)O)CCCC1 [Example 363, 4-[(2-Chloro-5-cyanophenylcarbonyl)amino]-N-[[1-(2-methoxyethyl)cyclopentyl]carbonyl]-L-phenylalanine]
- melting point: 169 to 172 °C
- IC50 [1]: 11 nM
- IC50 [2]: 0.64 nM
